# Measured values taken from EP4488269A1, “TRIAZOLE COMPOUNDS FOR THE CONTROL OF INVERTEBRATE PESTS” (BASF SE, priority 2023, dated 2025).
# Experiments:
# Type in all cases: in vivo
# [1] = tested on: tobacco budworm (Heliothis virescens); assay: Tobacco budworm control (insect diet with eggs, 96-well plates); conditions: for mortality at 2500 ppm: 120 h, egg and larval mortality, 5 days, read-out: mortality in comparison with untreated controls; for mortality at 25 ppm: test B.2, 25 ppm, comparison with prior art, read-out: % mortality in comparison to untreated controls
# Procedure: B.2 Tobacco budworm (Heliothis virescens)
# For evaluating control of tobacco budworm (Heliothis virescens), the test unit consisted of 96-well-microtiter plates containing an insect diet and 15-25 H. virescens eggs.
# The compounds were formulated using a solution containing 75% v/v water and 25% v/v DMSO. Different concentrations of formulated compounds were sprayed onto the insect diet at 10µl, using a custom-built micro atomizer, at two replications.
# After application, microtiter plates were incubated at about 28 ± 1°C and about 80 ± 5 % relative humidity for 5 days. Egg and larval mortality was then visually assessed.
# [2] = tested on: boll weevil (Anthonomus grandis); assay: Boll weevil control (insect diet with eggs, 96-well plates); conditions: 120 h, egg and larval mortality, 5 days, read-out: mortality in comparison with untreated controls
# Procedure: B.3 Boll weevil (Anthonomus grandis)
# For evaluating control of boll weevil (Anthonomus grandis), the test unit consisted of 96-well-microtiter plates containing an insect diet and 5-10 A. grandis eggs.
# The compounds were formulated using a solution containing 75% v/v water and 25% v/v DMSO. Different concentrations of formulated compounds were sprayed onto the insect diet at 5µl, using a custom-built micro atomizer, at two replications.
# After application, microtiter plates were incubated at about 25 ± 1°C and about 75 ± 5 % relative humidity for 5 days. Egg and larval mortality was then visually assessed.
# [3] = tested on: yellow fever mosquito (Aedes aegypti); assay: whole plant or invertebrate; conditions: 48 h, larval mortality, 2 days, read-out: mortality in comparison with untreated controls
# Procedure: B.5 Yellow fever mosquito (Aedes aegypti)
# For evaluating control of yellow fever mosquito (Aedes aegypti) the test unit consisted of 96-well-microtiter plates containing 200µl of tap water per well and 5-15 freshly hatched A. aegypti larvae.
# The active compounds were formulated using a solution containing 75% (v/v) water and 25% (v/v) DMSO. Different concentrations of formulated compounds or mixtures were sprayed onto the insect diet at 2.5µl, using a custom-built micro atomizer, at two replications.
# After application, microtiter plates were incubated at 28 ± 1°C, 80 ± 5 % RH for 2 days. Larval mortality was then visually assessed.
# [4] = tested on: Southern armyworm (Spodoptera eridania), 2nd instar larvae; assay: Southern armyworm foliar spray test on lima bean plants; conditions: 96 h, 4 days after treatment, read-out: mortality in comparison with untreated controls
# Procedure: B.4. Southern armyworm (Spodoptera eridania), 2nd instar larvae
# The active compounds were formulated by a Tecan liquid handler in 100% cyclohexanone as a 10,000-ppm solution supplied in tubes. The 10,000-ppm solution was serially diluted in 100% cyclohexanone to make interim solutions. These served as stock solutions for which final dilutions were made by the Tecan in 50% acetone:50% water (v/v) into 10 or 20ml glass vials. A non-ionic surfactant (Kinetic®) was included in the solution at a volume of 0.01% (v/v). The vials were then inserted into an automated electrostatic sprayer equipped with an atomizing nozzle for application to plants/insects. Lima bean plants (variety Sieva) were grown 2 plants to a pot and selected for treatment at the 1st true leaf stage. Test solutions were sprayed onto the foliage by an automated electrostatic plant sprayer equipped with an atomizing spray nozzle. The plants were dried in the sprayer fume hood and then removed from the sprayer. Each pot was placed into perforated plastic bags with a zip closure. Ten to 11 armyworm larvae were placed into the bag and the bags zipped closed. Test plants were maintained in a growth room at about 25°C and about 20-40% relative humidity for 4 days, avoiding direct exposure to fluorescent light (14:10 light:dark photoperiod) to prevent trapping of heat inside the bags. Mortality and reduced feeding were assessed 4 days after treatment, compared to untreated control plants.
# [5] = tested on: green peach aphid (Myzus persicae); assay: Green peach aphid control through systemic means (artificial diet, 96-well plates); conditions: 72 h, adult aphids on treated diet, 3 days, read-out: mortality in comparison with untreated controls
# Excerpt: B.1 Green Peach Aphid (Myzus persicae)
# For evaluating control of green peach aphid (Myzus persicae) through systemic means, the test unit consisted of 96-well-microtiter plates containing liquid artificial diet under an artificial mem brane.
# The compounds were formulated using a solution containing 75% v/v water and 25% v/v DMSO. Different concentrations of formulated compounds were pipetted into the aphid diet, using a custom built pipetter, at two replications.
# After application, 5 - 8 adult aphids were placed on the artificial membrane inside the microtiter plate wells. The aphids were then allowed to suck on the treated aphid diet and incubated at about 23 ± 1°C and about 50 ± 5 % relative humidity for 3 days. Aphid mortality and fecundity was then visually assessed.
SMILES,mortality at 2500 ppm [1],mortality at 2500 ppm [2],mortality at 2500 ppm [3],mortality at 300 ppm [4],mortality at 2500 ppm [5],mortality at 25 ppm [1]
"CC(NC(=O)c1cc(C(F)(F)F)cc(C(F)(F)F)c1)c1nccnc1-c1ncn(-c2cccnc2)n1 (stereo not drawn) [Compound I-1, N-[1-[3-[1-(3-pyridyl)-1,2,4-triazol-3-yl]pyrazin-2-yl]ethyl]-3,5-bis(trifluoromethyl)benzamide]",≥ 75%,≥ 75%,≥ 75%,≥ 75%,≥ 75%,–
"CC(NC(=O)c1cc(C(F)(F)F)cc(C(F)(F)F)c1)c1nccnc1-c1ncn(-c2cccnc2N)n1 (stereo not drawn) [Compound I-2, N-[1-[3-[1-(2-amino-3-pyridyl)-1,2,4-triazol-3-yl]pyrazin-2-yl]ethyl]-3,5-bis(trifluoromethyl)benzamide]",≥ 75%,≥ 75%,≥ 75%,≥ 75%,≥ 75%,–
"CC(NC(=O)c1cc(C(F)(F)F)cc(C(F)(F)F)c1)c1nccnc1-c1ncn(-c2cccnc2[N+](=O)[O-])n1 (stereo not drawn) [Compound I-3, N-[1-[3-[1-(2-nitro-3-pyridyl)-1,2,4-triazol-3-yl]pyrazin-2-yl]ethyl]-3,5-bis(trifluoromethyl)benzamide]",≥ 75%,≥ 75%,–,≥ 75%,–,–
"CC(NC(=O)c1cc(C(F)(F)F)cc(C(F)(F)F)c1)c1nccnc1-c1ncn(-c2cccnc2Br)n1 (stereo not drawn) [Compound I-4, N-[1-[3-[1-(2-bromo-3-pyridyl)-1,2,4-triazol-3-yl]pyrazin-2-yl]ethyl]-3,5-bis(trifluoromethyl)benzamide]",≥ 75%,≥ 75%,≥ 75%,≥ 75%,≥ 75%,–
"CC(NC(=O)c1cc(C(F)(F)F)cc(C(F)(F)F)c1)c1nccnc1-c1ncn(-c2ccccn2)n1 (stereo not drawn) [Compound I-6, N-[1-[3-[1-(2-pyridyl)-1,2,4-triazol-3-yl]pyrazin-2-yl]ethyl]-3,5-bis(trifluoromethyl)benzamide]",≥ 75%,≥ 75%,≥ 75%,≥ 75%,≥ 75%,100%
"CC(c1nccnc1-c1ncn(-c2ccccn2)n1)N(C)C(=O)c1cc(C(F)(F)F)cc(C(F)(F)F)c1 (stereo not drawn) [Compound I-17, N-methyl-N-[1-[3-[1-(2-pyridyl)-1,2,4-triazol-3-yl]pyrazin-2-yl]ethyl]-3,5-bis(trifluoromethyl)benzamide]",≥ 75%,≥ 75%,≥ 75%,≥ 75%,≥ 75%,–
"CC(NC(=O)c1cc(C(F)(F)F)cc(C(F)(F)F)c1)c1nccnc1-c1ncn(C)n1 (stereo not drawn) [WO2023/025617 I1-12, reference compound]",–,–,–,–,–,31%
